Source: ChEMBL document CHEMBL5532738, “Chiral Me-2-arachidonoyl Glycerols: The First Potent Endocannabinoid Glyceride Templates with Stability to COX-2” (ACS Med Chem Lett, 2024)

Columns and labels:
Format in all cases: functional, cell-based
[1] = target: Cannabinoid receptor 1 (Rattus norvegicus) (UniProt P20272); assay: Agonist activity at rat CB1 receptor stably expressed in HEK293 cells assessed as inhibition of forskolin-stimulated cAMP accumulation incubated for 5 mins by Lance Ultra cAMP assay relative to control; details: filed as agonist
Sequence of Cannabinoid receptor 1 (Rattus norvegicus) (P20272 whole entry): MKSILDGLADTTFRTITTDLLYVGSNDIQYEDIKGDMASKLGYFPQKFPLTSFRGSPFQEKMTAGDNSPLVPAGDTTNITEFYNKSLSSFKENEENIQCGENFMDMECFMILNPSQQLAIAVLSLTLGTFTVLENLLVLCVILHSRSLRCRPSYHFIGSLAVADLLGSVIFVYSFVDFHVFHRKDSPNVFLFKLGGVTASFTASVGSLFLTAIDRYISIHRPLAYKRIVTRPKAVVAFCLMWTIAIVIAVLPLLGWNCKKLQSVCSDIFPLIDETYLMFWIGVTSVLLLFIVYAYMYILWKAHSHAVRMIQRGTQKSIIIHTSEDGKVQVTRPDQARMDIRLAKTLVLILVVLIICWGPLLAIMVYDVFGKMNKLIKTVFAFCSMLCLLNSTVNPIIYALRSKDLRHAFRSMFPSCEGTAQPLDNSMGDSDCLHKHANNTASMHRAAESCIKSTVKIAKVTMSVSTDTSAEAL

Cannabinoid receptor 2 = Cannabinoid receptor 2 (Mus musculus, UniProt P47936); assay: Agonist activity at mouse CB2 receptor stably expressed in HEK293 cells assessed as inhibition of forskolin-stimulated cAMP accumulation incubated for 5 mins by Lance Ultra cAMP assay
Sequence of Cannabinoid receptor 2 (P47936 whole entry): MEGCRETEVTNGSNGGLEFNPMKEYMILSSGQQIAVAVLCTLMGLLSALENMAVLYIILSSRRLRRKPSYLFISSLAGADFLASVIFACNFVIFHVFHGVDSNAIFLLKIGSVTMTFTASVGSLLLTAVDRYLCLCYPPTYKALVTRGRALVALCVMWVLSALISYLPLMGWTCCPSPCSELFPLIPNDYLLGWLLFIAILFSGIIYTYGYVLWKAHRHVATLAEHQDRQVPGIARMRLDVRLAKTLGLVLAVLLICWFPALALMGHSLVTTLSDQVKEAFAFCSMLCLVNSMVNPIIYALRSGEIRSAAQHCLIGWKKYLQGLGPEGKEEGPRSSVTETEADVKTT

[2] = target: Cannabinoid receptor 2 (Mus musculus) (UniProt P47936); assay: Agonist activity at mouse CB2 receptor stably expressed in HEK293 cells assessed as inhibition of forskolin-stimulated cAMP accumulation incubated for 5 mins by Lance Ultra cAMP assay relative to control
Sequence of Cannabinoid receptor 2 (Mus musculus) (P47936 whole entry): as above

Cannabinoid receptor 1 = Cannabinoid receptor 1 (Rattus norvegicus, UniProt P20272); assay: Agonist activity at rat CB1 receptor stably expressed in HEK293 cells assessed as inhibition of forskolin-stimulated cAMP accumulation incubated for 5 mins by Lance Ultra cAMP assay
Sequence of Cannabinoid receptor 1 (P20272 whole entry): as the sequence (P20272 whole entry) above

Compound	Emax [1] [%]	EC50 (Cannabinoid receptor 2) [nM]	Emax ([2]; filed as agonist) [%]	EC50 (Cannabinoid receptor 1) [nM]	Emax [2] [%]
CCCCCCC(C)(C)c1ccc([C@@H]2C[C@H](O)CC[C@H]2CCCO)c(O)c1 [CP-55940]	67.1	7	54.4	–	–
CCCCC/C=C\C/C=C\C/C=C\[C@@H](C)/C=C\CCCC(=O)OC(CO)CO	74.8	–	–	34.6	< 1
CCCCC/C=C\[C@@H](C)/C=C\C/C=C\C/C=C\CCCC(=O)OC(CO)CO	51.6	50	42.8	7	–
CCCCC/C=C\C/C=C\C/C=C\[C@H](C)/C=C\CCCC(=O)OC(CO)CO	48.7	6	–	23.1	24.6
CCCCC/C=C\[C@H](C)/C=C\C/C=C\C/C=C\CCCC(=O)OC(CO)CO	51.2	53	50.1	17	–
CCCCC/C=C\C/C=C\C/C=C\C/C=C\CCCC(=O)OC(CO)CO [2-ARACHIDONOYLGLYCEROL]	47.7	18	–	–	35.2
